How the values were obtained:
Jurkat cells = assay: apoptosis in cultures of Jurkat cells incubated with toxin; assay type: cell-based; settings: own unpublished results
Description: Amatoxins (α-amanitin, β-amanitin, amanin) are cyclic peptides composed of 8 amino acids. They can be isolated from Amanita phalloides mushrooms or prepared from the building blocks by synthesis. Amatoxins inhibit specifically the DNA-dependent RNA polymerase II of mammalian cells, and by this transcription and protein biosynthesis of the cells affected. Inhibition of transcription in a cell causes stop of growth and proliferation. Though not covalently bound, the complex between amanitin and RNA-polymerase II is very tight (KD = 3nM). Dissociation of amanitin from the enzyme is a very slow process what makes recovery of an affected cell unlikely.
Phallotoxins (phalloidin, phallacidin, aminophalloidin) are cyclic peptides composed of 7 aminoacids. They bind specifically to the cytoskeletal protein actin in its polymeric form (microfilaments). By this, they prevent depolymerization of the microfilaments and disturb the proper function of the actin cytoskeleton. The actin cytoskeleton is a dense meshwork of microfilaments undergoing, under the control of actin-associated proteins, rapid cycles of assembly and disassembly essential for dynamic processes such as cell division and migration. Likewise, invasion by metastatic cells is thought to be dependent on actin. […]

[1] = target: DNA-dependent RNA polymerase II of mammalian cells (Homo sapiens, UniProt P24928+P30876); settings: complex between amanitin and RNA-polymerase II; cited from earlier work
actin = assay: binding to actin
Jurkat = assay: inhibition of proliferation by [3H]thymidine incorporation, Jurkat; assay type: cell-based; settings: Jurkat cells (CD3); Fig.3
Description: Monoclonal antibodies were conjugated with ß-amanitin-N-hydoxysuccinimide ester by incubating the antibody in PBS (2mg/mL) with 10-30 equivalents of the activated ß-amanitin derivative at 4°C under gentle shaking. After reaction for 16h the protein derivative was separated from unreacted amanitin by gelfiltration chromatography on Sephadex G25 using PBS as solvent. The combined protein fractions were concentrated to a protein concentration of ca 2 mg/mL and a toxin concentration of ca. 5 x 10^-5M. The ratio toxin : mAB was in the range of 5-15 : 1.
Three different cell lines, MCF-7, Jurkat, and Raji, exposing the specific receptors EpCAM, CD3, and CD71, respectively, were tested for the inhibition of proliferation by such ß-amanitin-monoclonal antibody conjugates, as followed by [^3H]thymidine incorporation. […] In all cases was amanitin conjugated to a specific antibody distinctly more toxic to the corresponding cell line than free amanitin, or amanitin conjugated to unspecific antibodies.

α-amanitin
programmed cell death (apoptosis) (Jurkat cells): undergoes programmed cell death (apoptosis)

amanitin
Kd [1]: 3 nM

thiopropionyl-aminophalloidin
actin binding compared with phalloidin (actin): binds actin as tightly as phalloidin itself

OKT3
times more inhibitory for the proliferation than the amanitin conjugate of an unspecific monoclonal antibody (ALH-419) (Jurkat): 330 times

phalloidin oleate
programmed cell death (apoptosis) (Jurkat cells): caused apoptosis
